# Measured values published in patent US7425640B2, “Substituted 5-carboxyamide pyrazoles and [1,2,4]triazoles as antiviral agents” (priority 2004, dated 2008).
# Molecular target: HCV RNA-dependent RNA polymerase NS5B (Δ21) (Hepatitis C virus genotype 1b, UniProt P26663)
# Experiment: Assay for HCV RNA-dependent RNA polymerase activity (SPA, [3H]-GTP incorporation)
# Type: biochemical
# Details: read-out: Δ21 Activity (IC50 μM); 50 nM NS5B (Δ21), class symbols
# Method: Inhibitory activity of the present compounds against HCV RNA-dependent RNA polymerase was assayed according to the methods disclosed in United States Patent Application US2004/038993, content of which is incorporated herein by reference; and those described in Ferrari, E.; Wright-Minogue, J.; Fang, J. W. S.; Baroudy, B. M.; Lau, J. Y. N.; Hong, Z. J. Virol. 1999, 73, 1649.
# Briefly, 50 μl reactions containing 20 mM HEPES (pH 7.3), 7.5 mM DTT, 20 units/ml RNasIN, 0.5 μg/ml biotinylated oligoG12, 5 μg/ml polyC, 5 μM GTP, 20 μCi/ml [^3H]-GTP, 10 mM MgCl2, 60 mM NaCl, 100 μg/ml BSA, and 50 nM NS5B (Δ21) were incubated at room temperature for three hours in 96-well plates with or without test compounds. Assay was terminated by the addition of 50 μl 10 mg/ml streptavidin-coated SPA beads supplemented with 100 mM EDTA, and the incorporation of labeled GTP determined by a TopCount Scintillation Counter. IC50 values were calculated from single experiments using 11 serial 2-fold dilutions (0.05-50 μM), and data were considered reliable only when the IC50 value of a positive internal control was within standard deviation range.
# Sequence of HCV RNA-dependent RNA polymerase NS5B (Δ21) (P26663 2420-2989, stated change not applied): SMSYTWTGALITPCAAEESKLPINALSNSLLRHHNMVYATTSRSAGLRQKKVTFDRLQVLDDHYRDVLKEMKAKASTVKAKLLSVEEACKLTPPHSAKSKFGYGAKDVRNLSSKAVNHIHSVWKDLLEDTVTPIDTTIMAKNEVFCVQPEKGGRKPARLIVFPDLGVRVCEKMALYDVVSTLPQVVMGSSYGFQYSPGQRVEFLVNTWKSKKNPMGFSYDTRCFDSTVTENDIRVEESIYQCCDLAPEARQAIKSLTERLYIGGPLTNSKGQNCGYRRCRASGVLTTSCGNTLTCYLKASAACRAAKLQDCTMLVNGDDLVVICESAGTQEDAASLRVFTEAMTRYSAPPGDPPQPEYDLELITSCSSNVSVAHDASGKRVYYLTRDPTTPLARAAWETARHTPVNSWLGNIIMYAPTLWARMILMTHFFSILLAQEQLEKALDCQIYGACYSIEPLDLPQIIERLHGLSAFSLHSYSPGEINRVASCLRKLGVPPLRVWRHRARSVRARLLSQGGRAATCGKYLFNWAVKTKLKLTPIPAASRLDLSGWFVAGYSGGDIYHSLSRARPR
row,Structure (SMILES),IC50
1,O=C(Cn1nc(NS(=O)(=O)Cc2ccccc2)cc1C(=O)N[C@H]1CCCC[C@@H]1OCc1ccccc1)N[C@H]1CCCC[C@@H]1OCc1ccccc1 [Compound 84],0.1 to 1 µM
2,O=C(Cn1nc(C(=O)NCc2cccnc2)cc1C(=O)N[C@H]1CCCC[C@@H]1OCc1ccccc1)N[C@H]1CCCC[C@@H]1OCc1ccccc1 [Compound 142],0.1 to 1 µM
3,N#Cc1ccc(NNC(=O)c2cc(C(=O)N[C@H]3CCCC[C@@H]3OCc3ccccc3)n(CC(=O)N[C@H]3CCCC[C@@H]3OCc3ccccc3)n2)cc1 [Compound 154],0.1 to 1 µM
4,Cc1ccc(OCC2CCCCC2)c(NC(=O)c2cc(C(=O)Nc3nnn[nH]3)nn2CC(=O)N[C@H]2CCCC[C@@H]2OCc2ccccc2)c1 [Compound 125],0.1 to 1 µM
5,O=C(Cn1nc(NS(=O)(=O)c2ccc(F)cc2F)cc1C(=O)N[C@H]1CCCC[C@@H]1OCc1ccccc1)N[C@H]1CCCC[C@@H]1OCc1ccccc1 [Compound 79],0.1 to 1 µM
6,O=C(Cn1nc(C(=O)NCc2ccncc2)cc1C(=O)N[C@H]1CCCC[C@@H]1OCc1ccccc1)N[C@H]1CCCC[C@@H]1OCc1ccccc1 [Compound 138],0.1 to 1 µM
7,O=C(O)CCCCCNC(=O)CCCCCNC(=O)c1cc(C(=O)N[C@H]2CCCC[C@@H]2OCc2ccccc2)n(CC(=O)N[C@H]2CCCC[C@@H]2OCc2ccccc2)n1 [Compound 165],0.1 to 1 µM
8,O=C(Cn1nc(C(=O)NCCc2ccccc2)cc1C(=O)N[C@H]1CCCC[C@@H]1OCc1ccccc1)N[C@H]1CCCC[C@@H]1OCc1ccccc1 [Compound 131],0.1 to 1 µM
9,O=C(Cn1nc(NC(=O)c2ccccc2)cc1C(=O)N[C@H]1CCCC[C@@H]1OCc1ccccc1)N[C@H]1CCCC[C@@H]1OCc1ccccc1 [Compound 91],0.1 to 1 µM
10,O=C(O)c1cc(C(=O)N[C@H]2CCCC[C@@H]2OCc2ccccc2)n(CS(=O)(=O)N[C@H]2CCCC[C@@H]2OCc2ccccc2)n1 [Compound 57],0.1 to 1 µM
11,O=C(Cn1nc(C(=O)O)cc1C(=O)N[C@@H]1CCCC[C@@H]1OCc1ccccc1)N[C@H]1CCCC[C@H]1OCc1ccccc1 [Compound 132],0.1 to 1 µM
12,O=C(Cn1nc(C(=O)NOCc2ccccc2)cc1C(=O)N[C@H]1CCCC[C@@H]1OCc1ccccc1)N[C@H]1CCCC[C@@H]1OCc1ccccc1 [Compound 53],0.1 to 1 µM
13,O=C(Cn1nc(NS(=O)(=O)c2cc(Cl)cc(Cl)c2O)cc1C(=O)N[C@H]1CCCC[C@@H]1OCc1ccccc1)N[C@H]1CCCC[C@@H]1OCc1ccccc1 [Compound 108],0.1 to 1 µM
14,O=C(Cn1nc(NS(=O)(=O)c2ccc(F)cc2Cl)cc1C(=O)N[C@H]1CCCC[C@@H]1OCc1ccccc1)N[C@H]1CCCC[C@@H]1OCc1ccccc1 [Compound 71],0.1 to 1 µM
15,NC(=O)c1cc(C(=O)N[C@H]2CCCC[C@@H]2OCc2ccccc2)n(CC(=O)N[C@H]2CCCC[C@@H]2OCc2ccccc2)n1 [Compound 157],0.1 to 1 µM
16,CCOC(=O)c1cc(C(=O)N[C@H]2CCCC[C@@H]2OCc2ccccc2)n(CS(=O)(=O)N[C@H]2CCCC[C@@H]2OCc2ccccc2)n1 [Compound 152],0.1 to 1 µM
17,O=C(Cn1nc(C=NO)cc1C(=O)N[C@H]1CCCC[C@@H]1OCc1ccccc1)N[C@H]1CCCC[C@@H]1OCc1ccccc1 [Compound 143],0.1 to 1 µM
18,O=C(Cn1nc(C(=O)NCC2CCCCC2)cc1C(=O)N[C@H]1CCCC[C@@H]1OCc1ccccc1)N[C@H]1CCCC[C@@H]1OCc1ccccc1 [Compound 137],0.1 to 1 µM
19,Cc1c(S(=O)(=O)Nc2cc(C(=O)N[C@H]3CCCC[C@@H]3OCc3ccccc3)n(CC(=O)N[C@H]3CCCC[C@@H]3OCc3ccccc3)n2)sc2ccc(Cl)cc12 [Compound 90],0.1 to 1 µM
20,CCCCNC(=O)c1cc(C(=O)N[C@H]2CCCC[C@@H]2OCc2ccccc2)n(CC(=O)N[C@H]2CCCC[C@@H]2OCc2ccccc2)n1 [Compound 110],0.1 to 1 µM
21,O=C(Cn1nc(C(=O)NCCc2ccc(Cl)cc2)cc1C(=O)N[C@H]1CCCC[C@@H]1OCc1ccccc1)N[C@H]1CCCC[C@@H]1OCc1ccccc1 [Compound 129],0.1 to 1 µM
22,CC(C)(NC(=O)c1cc(C(=O)N[C@H]2CCCC[C@@H]2OCc2ccccc2)n(CC(=O)N[C@H]2CCCC[C@@H]2OCc2ccccc2)n1)c1ccccc1 [Compound 52],0.1 to 1 µM
23,O=C(Cn1nc(C(=O)O)nc1C(=O)Nc1ccccc1OCc1ccccc1)N[C@H]1CCCC[C@@H]1OCc1ccccc1 [Compound 62],0.1 to 1 µM
24,Cc1nn(C)c(Cl)c1S(=O)(=O)Nc1cc(C(=O)N[C@H]2CCCC[C@@H]2OCc2ccccc2)n(CC(=O)N[C@H]2CCCC[C@@H]2OCc2ccccc2)n1 [Compound 112],0.1 to 1 µM
25,O=C(Cn1nc(C(=O)c2ccccc2)cc1C(=O)N[C@H]1CCCC[C@@H]1OCc1ccccc1)N[C@H]1CCCC[C@@H]1OCc1ccccc1 [Compound 88],0.1 to 1 µM

# Same assay, conditions: Δ21 Activity (IC50 μM), 50 nM NS5B (Δ21), class symbols
row,Structure (SMILES),IC50
1,CCOC(=O)c1cc(C(=O)N(C)[C@H]2CCCC[C@@H]2OCc2ccccc2)n(CC(=O)N(C)C2CCCC[C@@H]2OCc2ccccc2)n1 (stereo partly shown) [Compound 210],> 1 µM
2,CC(C)(O)c1cc(C(=O)N[C@H]2CCCC[C@@H]2OCc2ccccc2)n(CC(=O)N[C@H]2CCCC[C@@H]2OCc2ccccc2)n1 [Compound 190],> 1 µM
3,CCOC(=O)c1cc(C(=O)N[C@H]2CCCC[C@@H]2OCc2ccccc2)n(CC(=O)Nc2cc(C)ccc2OCC2CCC2)n1 [Compound 206],> 1 µM
4,O=C(Cn1nc(C(=O)Nc2ccc(-c3ccccc3)cc2)cc1C(=O)N[C@H]1CCCC[C@@H]1OCc1ccccc1)NC1CCCC[C@@H]1OCc1ccccc1 (stereo partly shown) [Compound 203],> 1 µM
5,O=C(Cn1nc(-c2cccs2)cc1C(=O)N[C@H]1CCCC[C@@H]1OCc1ccccc1)N[C@H]1CCCC[C@@H]1OCc1ccccc1 [Compound 170],> 1 µM
6,O=C(Cn1nc(C(=O)O)cc1C(=O)N[C@H]1CCCC[C@@H]1OCc1ccccc1)NC1CCC[C@@H]1Sc1ccccc1 (stereo partly shown) [Compound 169],> 1 µM
7,O=C(Cn1nc(NS(=O)(=O)c2ccc(Cl)cc2)cc1C(=O)N[C@H]1CCCC[C@@H]1OCc1ccccc1)N[C@H]1CCCC[C@@H]1OCc1ccccc1 [Compound 11],< 0.05 µM
8,"O=C(Cn1nc(-c2nnn[nH]2)cc1C(=O)N[C@H]1CCCC[C@@H]1OCc1ccccc1)N[C@H]1CCCC[C@@H]1OCc1ccccc1 (stereo in doubt) [Compound 18, 2-[(2-benzyloxy-cyclohexylcarbamoyl)-methyl]-5-(1H-tetrazol-5-yl)-2H-pyrazole-3-carboxylic acid (2-benzyloxy-cyclohexyl)-amide]",0.05 to 0.1 µM
9,CCOC(=O)c1cc(C(=O)N[C@H]2CCCC[C@@H]2OCc2ccccc2)n(C(C)C(=O)N[C@H]2CCCC[C@@H]2OCc2ccccc2)n1 (stereo partly shown) [Compound 186],> 1 µM
10,Cc1ccc(OCC2CCCCC2)c(NC(=O)c2cc(C(=O)NC#N)nn2CC(=O)N[C@H]2CCCC[C@@H]2OCc2ccccc2)c1 [Compound 4],< 0.05 µM
11,COC(=O)CCCCCNC(=O)CCCCCNC(=O)c1cc(C(=O)N[C@H]2CCCC[C@@H]2OCc2ccccc2)n(CC(=O)N[C@H]2CCCC[C@@H]2OCc2ccccc2)n1 [Compound 184],> 1 µM
12,Nc1cc(C(=O)N[C@H]2CCCC[C@@H]2OCc2ccccc2)n(CC(=O)NC2CCCC[C@@H]2OCc2ccccc2)n1 (stereo partly shown) [Compound 205],> 1 µM
13,COc1ccc(NC(=O)c2cc(C(=O)O)nn2CC(=O)N[C@H]2CCCC[C@@H]2OCc2ccccc2)c(OCc2ccccc2)c1 [Compound 201],> 1 µM
14,O=C(O)c1cc(C(=O)N[C@H]2CCCC[C@@H]2OCc2ccccc2)n(CC(=O)N2CCC[C@@H]2COCc2ccccc2)n1 [Compound 198],> 1 µM
15,CC(O)(c1ccc(Cl)cc1)c1cc(C(=O)N[C@H]2CCCC[C@@H]2OCc2ccccc2)n(CC(=O)N[C@H]2CCCC[C@@H]2OCc2ccccc2)n1 (stereo partly shown) [Compound 180],> 1 µM
16,O=C(Cn1nc(NS(=O)(=O)c2ccc(Br)c(C(=O)O)c2)cc1C(=O)N[C@H]1CCCC[C@@H]1OCc1ccccc1)N[C@H]1CCCC[C@@H]1OCc1ccccc1 [Compound 17],< 0.05 µM
17,C[C@H](NC(=O)c1cc(C(=O)N[C@H]2CCCC[C@@H]2OCc2ccccc2)n(CC(=O)N[C@H]2CCCC[C@@H]2OCc2ccccc2)n1)c1cccc2ccccc12 [Compound 27],0.05 to 0.1 µM
18,O=C(Cn1nc(NS(=O)(=O)c2ccc(I)cc2)cc1C(=O)N[C@H]1CCCC[C@@H]1OCc1ccccc1)N[C@H]1CCCC[C@@H]1OCc1ccccc1 [Compound 19],0.05 to 0.1 µM

# Same assay, conditions: Δ21 Activity (IC50 μM), 50 nM NS5B (Δ21), numeric values
row,Structure (SMILES),IC50
1,C[C@@H](NC(=O)c1cc(C(=O)N[C@H]2CCCC[C@@H]2OCc2ccccc2)n(CC(=O)N[C@H]2CCCC[C@@H]2OCc2ccccc2)n1)c1cccc2ccccc12 [drawing 246],0.15 µM
2,Cc1ccc(OCC2CCCCC2)c(NC(=O)c2cc(C(=O)NC#N)nn2CC(=O)N[C@H]2CCCC[C@@H]2OCc2ccccc2)c1 [drawing 243],0.037 µM
3,COc1cccc(NC(=O)c2cc(C(=O)N[C@H]3CCCC[C@@H]3OCc3ccccc3)n(CC(=O)N[C@H]3CCCC[C@@H]3OCc3ccccc3)n2)c1 [drawing 255],0.045 µM
4,Cc1ccc(OCc2ccsc2)c(NC(=O)c2cc(C(=O)O)nn2CC(=O)N[C@H]2CCCC[C@@H]2OCc2ccccc2)c1 [drawing 247],0.032 µM
5,Cc1ccc(OCC2CCCCC2)c(NC(=O)c2cc(C(=O)O)nn2CC(=O)N[C@H]2CCCC[C@@H]2OCc2ccccc2)c1 [drawing 244],0.033 µM
6,O=C(Cn1nc(NS(=O)(=O)c2ccc(O)c(C(=O)O)c2)cc1C(=O)N[C@H]1CCCC[C@@H]1OCc1ccccc1)N[C@H]1CCCC[C@@H]1OCc1ccccc1,0.074 µM
